Data on 1 molecule can be found in publication PMC12817916, “A small-molecule HSP90 inhibitor, NVP-HSP990, alleviates rotavirus infection” (Journal of Virology, 2025).

Like-named read-outs stand apart in the source and are kept apart here.

One data set has as its system MA104 cells. Briefly: Cytotoxicity assay (CCK-8). The data set is classed as cell-based, Rhesus monkey. To be noted: MA104 cells, 24 h, CCK-8; read-out: CC50. How it is done: To evaluate the cytotoxicity of different HSP90 inhibitors in vitro, 10,000 MA104 cells, 30,000 Caco-2 cells, and 80,000 HT-29 cells in 100 µL complete DMEM medium were seeded in 96-well plates and cultured at 37°C and 5% CO2 for 24 h to reach about 100% confluence, and a cell-free control was also set. After removing the initial medium, 100 µL of complete DMEM medium containing the indicated concentrations of drugs was added to each well, and the plates were incubated at 37°C and 5% CO2. Twenty-four hours later, the drug-containing medium was replaced with 100 µL fresh complete DMEM medium plus 10 µL 5 mM CCK-8 reagent (Beyotime, China), and OD450 absorbance of each well was detected 3 h later using a microplate reader (Gene Company Limited, China). Relative cell viability rate = OD450 (drug-treated cells − cell-free control) / OD450 (0 µM drug-treated cells − cell-free control).
The 50% cytotoxic concentration (CC50) values were determined by nonlinear regression (curve fit) analysis in GraphPad Prism 9.0 (GraphPad Software). Dose-response data (drug concentrations as X-axis and normalized cell viability percentages as Y-axis) were fitted to a Dose-response Inhibition model ("[Inhibitor] vs. normalized response-Variable slope"). The curve was constrained to a bottom limit of 0% viability. The CC50 value was automatically calculated as the X-intercept at Y=50%. Model adequacy was validated using goodness-of-fit metrics (R²≥0.95), 95% confidence intervals, and residual distribution analysis. Final CC50 values were derived from three independent biological replicates and reported as mean ± SEM.

Another data set has as its system RV SA11 (G3P[2]) strain. Nature of the data set: In vitro assay of RV replication inhibition (PFA). The data set is classed as cell-based, Rotavirus. To be noted: MOI = 1, 24 h p.i., PFA, read-out: IC50. How it is done: (§1) For analysis of effects of different […] on RV replication in vitro, 10,000 MA104 cells, 30,000 Caco-2 cells, and 80,000 HT-29 cells in 100 µL complete DMEM medium were seeded in 96-well plates and cultured at 37°C and 5% CO2 for 24 h. Then the cells were infected with RV Wa or SA11 strains (MOI = 1 (PFU/cell)) for 1 h. After removing the viruses and washing cells two times with DMEM, 100 µL DMEM containing the indicated concentrations of drugs was added to each well, and the plates were incubated at 37°C and 5% CO2. At 24 h p.i., the infected cells and culture medium were collected, frozen/thawed twice, and subjected to centrifugation at 1,000 × g for 3 min at room temperature. Then, the supernatant was subjected to analysis of viral load by PFA. […] Dose-response data (drug concentrations as x-axis and normalized inhibition percentages as y-axis) were fitted to a dose-response inhibition model ([Inhibitor] vs normalized response – Variable slope). […] Model adequacy was validated using goodness-of-fit metrics (R^2 ≥ 0.95), 95% confidence intervals, and residual distribution analysis.
(§2) Wa/SA11 strains were titrated by PFA, which was carried out as described (3) with some modification. Briefly, confluent monolayers of MA104 cells in 24-well tissue culture plates were infected with 100 µL supernatants containing infectious RV particles which were serially diluted (10^1, 10^2, 10^3, and 10^4) with DMEM containing 1 µg/mL trypsin and penicillin (10,000 U/mL)-streptomycin (5 µg/mL) (DMEM-T) for 1 h at 37°C. Then 400 µL agarose overlay (0.8% agarose in 1×DMEM-T) was added and the plates were incubated at 37℃ and 5% CO2 for 5 days. The cells in each well were fixed by 1 mL 4% paraformaldehyde (Sangon Biotech, China) overnight (> 12 h) at room temperature. Then, the paraformaldehyde and agarose were removed and the monolayers were stained with 0.5 ml of a 1% (v/v) crystal violet (Sangon Biotech, China) diluted in distilled water for 10 min at room temperature. Then, the plates were drained and dried, and the plaques were enumerated. As the EDIM strain is not able to grow in cell culture, it was titrated by qPCR analysis as described (4) with EDIM VP6 gene as the target.

For another data set, the system named is RV Wa (G1P[8]) strain. Nature of the data set: In vitro assay of RV replication inhibition (PFA). The data set is classed as cell-based, Rotavirus. The note with it: MOI = 1, 24 h p.i., PFA, read-out: IC50. How it is done: as §1, §2
A further data set relates to HSP90β. To be noted: targets the N-terminal of HSP90β; cited from earlier work.

On to `COc1cccc(-c2cc(F)ccc2[C@H]2Cc3nc(N)nc(C)c3C(=O)N2)n1` [NVP-HSP990], for which the CC50 (commonly the concentration at which the toxic effect on the cells reaches its halfway point) in the data set on MA104 cells was > 100000 nM. Besides, the half-maximal inhibitory concentration (IC50) (as a rule, the concentration that gives 50% inhibition) in the data set on RV SA11 (G3P[2]) strain (SA11 strain in Caco-2 cells) came out at 7.47 ± 4.84 nM; in the data set with RV SA11 (G3P[2]) strain (SA11 strain in HT-29 cells), 3.85 ± 1.16 nM; in the data set on RV SA11 (G3P[2]) strain (SA11 strain in MA104 cells), 0.84 ± 0.17 nM; in the data set on RV Wa (G1P[8]) strain (Wa strain in Caco-2 cells), 4 ± 1.28 nM; in the data set on RV Wa (G1P[8]) strain (Wa strain in HT-29 cells) it was 4.69 ± 0.9 nM; with RV Wa (G1P[8]) strain (Wa strain in MA104 cells), 0.96 ± 0.13 nM. In the data set on HSP90β, the IC50 was 0.8 nM.
